This is an account of results in patent US20180206498A1, “SUBSTITUTED HETEROARYL CARBOXYLIC ACID HYDRAZIDES OR SALTS THEREOF AND USE THEREOF TO INCREASE STRESS TOLERANCE IN PLANTS” (Bayer CropScience Aktiengesellschaft, priority 2015, published 2018).

In one test the test system is Zea mays. As to the kind of experiment: Drought stress in vivo analysis, efficacy EF from visually scored damage intensity. To be noted: scored after recovery phase. Here is the method: (§1) Seeds of monocotyledonous and dicotyledonous crop plants were sown in sandy loam in wood-fiber or plastic pots, covered with soil or sand and cultivated in a greenhouse under good growth conditions. The trial plants were treated at the early leaf stage (BBCH10-BBCH13). To assure uniform water supply before commencement of stress, the potted plants were supplied with water by dam irrigation prior to substance application. The inventive compounds formulated in the form of wettable powders (WP) were sprayed onto the green parts of the plants as an aqueous suspension at an equivalent water application rate of 600 I/ha with addition of 0.2% wetting agent (e.g. agrotin). Substance application was followed immediately by stress treatment of the plants. For this purpose, the wood-fiber pots were transferred in plastic inserts in order to prevent them from subsequently drying out too quickly. Drought Stress was Induced by Gradual Drying Out Under the Following Conditions: “Day”: 14 hours with illumination at ˜26-30° C. “Night”: 10 hours without illumination at ˜18-20° C. The duration of the respective stress phases was guided mainly by the condition of the stressed control plants. It was ended (by re-irrigating and transfer to a greenhouse with good growth conditions) as soon as irreversible damage was observed on the stressed control plants. The end of the stress phase was followed by an about 4-7-day recovery phase, during which the plants were once again kept under good growth conditions in a greenhouse. The duration of the recovery phase was guided mainly by when the trial plants had attained a state which enabled visual scoring of potential effects, and is therefore variable. Once this juncture was reached, the intensities of damage were scored visually in comparison to untreated, unstressed controls of the same age. The damage intensity was at first assessed in percent. These values were then used to calculate the efficacy of the test compounds by the following formula: [formula] EF: Efficacy DIs: Damage intensity of the stressed control plants DIh: Damage intensity of the stressed plants treated with test compound The values reported in tables A-1 to A-3 below are mean values from at least one trial with at least two repeats. The effects of selected compounds of the general formula (I) under drought stress on various crop plants were measured. BRSNS=Brassica napus ZEAMX=Zea mays TRZAS=Triticum aestivum

Test [1] concerns Brassica napus. Nature of the test: Drought stress in vivo analysis Part B, appearance vs stressed control plants in categories. Also noted: key: 0: no positive effect; +: slight positive effect; ++: clear positive effect; +++: strong positive effect. Here is the method: (§2) Seeds of monocotyledonous and dicotyledonous crop plants were sown in sandy loam in plastic pots, covered with soil or sand and cultivated in a greenhouse under good growth conditions. The test plants are treated at the early leaf stage (BBCH10-BBCH13). To assure uniform water supply before commencement of stress, the potted plants were supplied with water by dam irrigation prior to substance application. The inventive compounds were first formulated as wettable powders (WP) or dissolved in a solvent mixture. The further dilution was effected with water supplemented with 0.2% wetting agent (e.g. agrotin). The finished spray liquor was sprayed onto the green parts of the plant at an equivalent water application rate of 600 I/ha. Substance application was followed immediately by stress treatment of the plants. Drought Stress was Induced by Gradual Drying Out Under the Following Conditions: “Day”: 14 hours with illumination at […]-30° C. “Night”: 10 hours without illumination at 18-20° C. The duration of the respective stress phases was guided mainly by the condition of the stressed control plants. It was ended (by re-irrigating and transfer to a greenhouse with good growth conditions) as soon as irreversible damage was observed on the stressed control plants. The end of the stress phase was followed by an about 4-7-day recovery phase, during which the plants were once again kept under good growth conditions in a greenhouse. The duration of the recovery phase was guided mainly by when the trial plants had attained a state which enabled visual scoring of potential effects, and was therefore variable. Once this juncture had been reached, the appearance of the plants treated with test substances was recorded in comparison to the stressed control plants by the following categories: [table] In order to rule out any influence on the effects observed by any fungicidal or insecticidal action of the test compounds, it was additionally ensured that the tests proceeded without fungal infection or insect infestation. The values reported in tables B-1 and […] below are mean values of the results from at least three repeats. Effects of selected compounds of the general formula (I) under drought stress according to the following tables B-1 and B-2: BRSNS=Brassica napus ZEAMX=Zea mays TRZAS=Triticum aestivum

The test system of test [2] is Triticum aestivum. The test is described as above. Also noted: key: 0: no positive effect; +: slight positive effect; ++: clear positive effect; +++: strong positive effect. The method, then: as §2
Test [3] concerns Brassica napus. Nature of the test: Drought stress in vivo analysis, efficacy EF from visually scored damage intensity. The settings on record: spray 250 g/ha, scored after recovery phase. Here is the method: as §1
The subject of test [4] is Triticum aestivum. Described as above. The settings on record: scored after recovery phase. Here is the method: as §1

In the case of `CN(C)N(Cc1ccccc1C#N)C(=O)c1ccco1` [Compound C1-61], the “EF [%] (ZEAMX)” value in the test on Zea mays (spray 250 g/ha) is given as greater than 5%.
Take `CN(C)N(Cc1ccc(Cl)cc1)C(=O)c1cnsn1` [Compound H1-3]: the “Effect (BRSNS)” value with Brassica napus [1] (spray 25 g/ha) is “+”. Also, the “Effect (TRZAS)” value with Triticum aestivum [2] (spray 25 g/ha) is recorded as “+”.
Turning to `COc1cc(OC)nc(CN(C(=O)c2c(C(F)F)nn(C)c2F)N(C)C)n1` [Compound A5-30], the “EF [%] (ZEAMX)” value with Zea mays (spray 25 g/ha) is greater than 5%.
On to `CN(C)N(Cc1ccc(Cl)nc1)C(=O)c1cc(OCc2ccccc2)ns1` [Compound G10-94], for which the “Effect (BRSNS)” value in the test on Brassica napus [1] (spray 250 g/ha) is reported as “++”. Besides, the “Effect (TRZAS)” value in the test with Triticum aestivum [2] (spray 25 g/ha) is “+”.
Regarding `CNN(Cc1ccccc1Cl)C(=O)c1c(C(F)F)nn(C)c1F` [Compound A22-1], in the test with Brassica napus [1] (spray 250 g/ha), the “Effect (BRSNS)” value is on record as “+”. Also, the “Effect (TRZAS)” value in the test with Triticum aestivum [2] (spray 250 g/ha) is reported as “+”.
`O=C(c1cnsn1)N(Cc1cccc(Cl)c1Cl)N1CCCC1` [Compound H2-4]: the “Effect (BRSNS)” value in the test on Brassica napus [1] (spray 250 g/ha) is “+”. The “Effect (TRZAS)” value in the test on Triticum aestivum [2] (spray 250 g/ha) is reported as “+”.
For `CN(C)N(Cc1ccccn1)C(=O)c1c(C(F)F)nn(C)c1Cl` [Compound A6-21, 5-Chloro-3-(difluoromethyl) —N′,N′,1-trimethyl-N-(pyridin-2-ylmethyl)-1H-pyrazole-4-carbohydrazide], the “EF [%] (BRSNS)” value with Brassica napus [3] is given as greater than 5%. Further, the “EF [%] (ZEAMX)” value with Zea mays (spray 250 g/ha) is on record as greater than 5%.
As to `CN(C)N(Cc1ccccc1C#N)C(=O)c1c(C(F)(F)F)nn(C)c1F` [Compound A2-61], the “Effect (BRSNS)” value in the test on Brassica napus [1] (spray 25 g/ha) was “++”. In addition, the “Effect (TRZAS)” value in the test on Triticum aestivum [2] (spray 25 g/ha) was “+”.
As for `O=C(c1ccns1)N(Cc1ccccc1F)N1CCCC1` [Compound G9-11], the “Effect (BRSNS)” value in the test on Brassica napus [1] (spray 250 g/ha) is on record as “+”. In addition, in the test on Triticum aestivum [2] (spray 250 g/ha), the “Effect (TRZAS)” value is listed as “+”.
For the molecule `CN(C)N(Cc1ccccc1C#N)C(=O)c1ccsc1` [Compound B2-61], the “EF [%] (BRSNS)” value in the test with Brassica napus [3] is recorded as greater than 5%. Besides, the “EF [%] (TRZAS)” value in the test on Triticum aestivum [4] (spray 20 g/ha) is reported as greater than 5%. Also, the “EF [%] (ZEAMX)” value in the test with Zea mays (spray 250 g/ha) is on record as greater than 5%.
`CN(C)N(Cc1ccccn1)C(=O)c1ccsc1` [Compound B2-21]: the “EF [%] (TRZAS)” value with Triticum aestivum [4] (spray 25 g/ha) is given as greater than 5%. Further, the “EF [%] (ZEAMX)” value in the test with Zea mays (spray 250 g/ha) is greater than 5%.
In the case of `Cc1c(OCc2ccccc2)nsc1C(=O)N(Cc1cccc(Cl)c1Cl)N(C)C` [Compound G11-4], the “Effect (BRSNS)” value with Brassica napus [1] (spray 250 g/ha) is recorded as “++”. In the test on Triticum aestivum [2] (spray 250 g/ha), the “Effect (TRZAS)” value is on record as “+”.
With `Cc1nnsc1C(=O)N(Cc1cccc(Cl)c1Cl)N(C)C` [Compound F1-4], the “Effect (BRSNS)” value in the test with Brassica napus [1] (spray 250 g/ha) is “+”. Also, the “Effect (TRZAS)” value in the test on Triticum aestivum [2] (spray 250 g/ha) is given as “+”.
Consider `Cc1nc(-c2cccnc2)sc1C(=O)N(Cc1ccccc1Cl)N(C)C` [Compound D1-1], for which the “Effect (BRSNS)” value in the test with Brassica napus [1] (spray 25 g/ha) is “+”. For the same molecule, in the test on Triticum aestivum [2] (spray 250 g/ha), the “Effect (TRZAS)” value is given as “+”.
With `CN(C)N(Cc1ccccc1Cl)C(=O)c1ccsc1` [Compound B2-1], the “EF [%] (TRZAS)” value in the test on Triticum aestivum [4] (spray 250 g/ha) is greater than 5%. Moreover, the “EF [%] (ZEAMX)” value in the test with Zea mays (spray 25 g/ha) was greater than 5%.
Consider `CN(C)N(Cc1ccccc1F)C(=O)c1sc(Cl)nc1Cl` [Compound D6-11], for which, in the test on Brassica napus [1] (spray 250 g/ha), the “Effect (BRSNS)” value was “+”. For the same molecule, in the test on Triticum aestivum [2] (spray 25 g/ha), the “Effect (TRZAS)” value is “+”.
With `O=C(c1cnsn1)N(Cc1ccccc1F)N1CCCC1` [Compound H2-11], the “Effect (BRSNS)” value with Brassica napus [1] (spray 25 g/ha) is “+”. In the test with Triticum aestivum [2] (spray 250 g/ha), the “Effect (TRZAS)” value is reported as “+”.
Regarding `CN(C)N(Cc1ccccc1F)C(=O)c1cnsn1` [Compound H1-11], the “Effect (BRSNS)” value in the test with Brassica napus [1] (spray 250 g/ha) is recorded as “+”. Besides, the “Effect (TRZAS)” value with Triticum aestivum [2] (spray 250 g/ha) is recorded as “+”.
Consider `CN(C)N(Cc1ccc(F)cc1F)C(=O)c1c(C(F)(F)F)nn(C)c1Cl` [Compound A1-15], for which the “Effect (BRSNS)” value with Brassica napus [1] (spray 25 g/ha) is listed as “++”. Further, in the test with Triticum aestivum [2] (spray 25 g/ha), the “Effect (TRZAS)” value is “+”.
Regarding `CN(C)N(Cc1ccccc1C#N)C(=O)c1sc(Cl)nc1Cl` [Compound D6-61], in the test with Brassica napus [1] (spray 250 g/ha), the “Effect (BRSNS)” value is “+”. For the same molecule, in the test with Triticum aestivum [2] (spray 25 g/ha), the “Effect (TRZAS)” value is “+”.
For the molecule `CN(C)N(Cc1ccccc1Cl)C(=O)c1ccns1` [Compound G8-1], in the test on Brassica napus [1] (spray 250 g/ha), the “Effect (BRSNS)” value was “+”. Also, in the test with Triticum aestivum [2] (spray 250 g/ha), the “Effect (TRZAS)” value is listed as “+”.
On to `O=C(c1ccns1)N(Cc1ncc(C(F)(F)F)cc1Cl)N1CCCC1` [Compound G9-36], for which the “Effect (BRSNS)” value with Brassica napus [1] (spray 250 g/ha) is reported as “++”. In the test on Triticum aestivum [2] (spray 25 g/ha), the “Effect (TRZAS)” value was “+”.
As for `CCn1nc(C(F)F)c(C(=O)N(Cc2nccc(Cl)c2Cl)N2CCCC2)c1F` [Compound A24-40], the “Effect (BRSNS)” value in the test on Brassica napus [1] (spray 250 g/ha) is “+”. Also, the “Effect (TRZAS)” value in the test with Triticum aestivum [2] (spray 250 g/ha) is “+”.
For the molecule `CN(C)N(Cc1ccc(Cl)nc1)C(=O)c1ccns1` [Compound G8-94], the “Effect (BRSNS)” value with Brassica napus [1] (spray 25 g/ha) is “+”. In the test on Triticum aestivum [2] (spray 25 g/ha), the “Effect (TRZAS)” value is on record as “++”.
As to `O=C(c1ccns1)N(Cc1cccc(Cl)c1Cl)N1CCCC1` [Compound G9-4], the “Effect (BRSNS)” value in the test on Brassica napus [1] (spray 250 g/ha) is “++”. For the same molecule, the “Effect (TRZAS)” value with Triticum aestivum [2] (spray 25 g/ha) is “++”.
In the case of `O=C(c1cnsn1)N(Cc1ccc(Cl)nc1)N1CCCC1` [Compound H2-94], the “Effect (BRSNS)” value in the test with Brassica napus [1] (spray 250 g/ha) is “+”. Also, in the test on Triticum aestivum [2] (spray 250 g/ha), the “Effect (TRZAS)” value was “+”.
